“Also recorded” adds a separate entry of the source. Like-named read-outs stand apart in the source and are kept apart here.
Key:
[1] = biological target: T1, human SERT (Homo sapiens, UniProt P31645); assay: (3H)serotonin transport in HEK-293 cells transfected with the human SERT; assay type: cell-based; details: for blocked (3H)serotonin transport (in words): comparable to imipramine, fluoxetine and amitriptyline
T1 construct: expressed in transfected cells; host or cells: HEK-293 (stably or transiently transfected, pcDNA3.1 vector)
T1 sequence (P31645 whole entry): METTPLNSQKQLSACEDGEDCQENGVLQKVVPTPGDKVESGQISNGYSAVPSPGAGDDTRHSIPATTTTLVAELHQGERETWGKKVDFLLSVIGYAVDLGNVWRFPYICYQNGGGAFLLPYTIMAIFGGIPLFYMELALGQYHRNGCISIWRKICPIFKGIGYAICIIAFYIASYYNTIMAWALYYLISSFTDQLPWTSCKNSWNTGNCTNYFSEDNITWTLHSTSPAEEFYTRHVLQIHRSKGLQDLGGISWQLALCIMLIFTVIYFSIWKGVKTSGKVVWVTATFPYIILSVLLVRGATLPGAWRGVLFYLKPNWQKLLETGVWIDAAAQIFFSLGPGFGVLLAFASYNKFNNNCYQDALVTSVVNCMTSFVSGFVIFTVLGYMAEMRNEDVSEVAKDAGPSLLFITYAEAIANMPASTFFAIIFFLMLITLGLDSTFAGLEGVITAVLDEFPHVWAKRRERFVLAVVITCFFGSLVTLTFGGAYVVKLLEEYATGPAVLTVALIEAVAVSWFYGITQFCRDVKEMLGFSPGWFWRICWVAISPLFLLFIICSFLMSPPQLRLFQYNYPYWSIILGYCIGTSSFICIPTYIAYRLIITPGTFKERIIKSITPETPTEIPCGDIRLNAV

[2] = biological target: T1, human SERT; assay: (3H)citalopram binding in HEK-293 cells transfected with the human SERT
[3] = biological target: T2, Dopamine transporter (DAT) (Macaca fascicularis, UniProt Q9GJT6); assay: (3H)CFT competition binding in monkey striatum homogenates
T2 construct: in monkey striatum homogenates; from tissue; host or cells: monkey striatum homogenate
T2 sequence (Q9GJT6 whole entry): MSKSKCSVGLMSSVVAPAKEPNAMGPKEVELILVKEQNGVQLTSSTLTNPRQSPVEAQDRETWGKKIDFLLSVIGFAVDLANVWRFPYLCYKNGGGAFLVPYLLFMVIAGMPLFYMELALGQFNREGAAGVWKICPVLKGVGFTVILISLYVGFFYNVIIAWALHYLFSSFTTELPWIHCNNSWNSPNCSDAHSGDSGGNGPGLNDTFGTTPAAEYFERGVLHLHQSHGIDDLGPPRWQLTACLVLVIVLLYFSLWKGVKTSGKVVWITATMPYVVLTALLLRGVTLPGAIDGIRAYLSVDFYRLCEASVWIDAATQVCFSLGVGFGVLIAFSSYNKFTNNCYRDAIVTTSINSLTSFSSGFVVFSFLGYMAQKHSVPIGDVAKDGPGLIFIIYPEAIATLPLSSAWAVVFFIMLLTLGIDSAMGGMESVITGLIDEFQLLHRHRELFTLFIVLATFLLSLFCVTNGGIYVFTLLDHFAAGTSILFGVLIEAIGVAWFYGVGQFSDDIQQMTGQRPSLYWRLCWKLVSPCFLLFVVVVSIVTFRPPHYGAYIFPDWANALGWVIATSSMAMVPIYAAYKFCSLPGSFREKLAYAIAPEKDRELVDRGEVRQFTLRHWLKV
Protocol: (§1) Values were determined by fitting data to the equation for competitive binding with EBDA computer program. Data represent the mean ±S.D. of two or more experiments.

[4] = biological target: T3, Serotonin transporter (SERT) (Macaca mulatta, UniProt Q9MYX0); assay: (3H)citalopram competition binding in monkey striatum homogenates; details: for SERT/DAT Selectivity: fold selectivity for serotonin over dopamine transporter
T3 construct: in monkey striatum homogenates; from tissue; host or cells: monkey striatum homogenate
T3 sequence (Q9MYX0 whole entry): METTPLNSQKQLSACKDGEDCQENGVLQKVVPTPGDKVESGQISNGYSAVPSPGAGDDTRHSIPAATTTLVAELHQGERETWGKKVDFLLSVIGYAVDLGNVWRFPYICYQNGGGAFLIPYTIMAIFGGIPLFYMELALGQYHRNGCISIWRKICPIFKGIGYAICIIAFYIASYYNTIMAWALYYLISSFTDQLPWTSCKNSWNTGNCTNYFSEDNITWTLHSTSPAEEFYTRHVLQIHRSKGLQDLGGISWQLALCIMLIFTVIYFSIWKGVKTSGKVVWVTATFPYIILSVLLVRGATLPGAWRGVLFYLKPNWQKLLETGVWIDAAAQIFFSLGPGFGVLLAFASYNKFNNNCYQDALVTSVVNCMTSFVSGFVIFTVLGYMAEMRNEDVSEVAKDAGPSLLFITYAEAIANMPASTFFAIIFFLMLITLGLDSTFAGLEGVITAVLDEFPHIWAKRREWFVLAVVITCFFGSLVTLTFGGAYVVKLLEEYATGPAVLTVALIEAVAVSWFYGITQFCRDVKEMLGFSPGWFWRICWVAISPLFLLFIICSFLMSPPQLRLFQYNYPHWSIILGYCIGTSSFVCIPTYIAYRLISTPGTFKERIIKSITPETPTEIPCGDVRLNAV
Protocol: Initial screening procedures for non-amines were conducted in primate striatum, a standard source of brain transporters for drug screening and for generating structure-activity relationships for this series (Table 1). […] The binding experiments were terminated by rapid filtration and radioactivity measured as described above. […] The experiments were performed in triplicate and each value is the mean ±S.E. of 2-5 independent experiments.
as §1

[5] = (3H)serotonin transport Ki, HEK-293 cells with human SERT, 20 nM (3H)serotonin, mean ± S.E.M.
[6] = monkey striatum, 1 nM (3H)CFT, mean ± S.D., read-out: Dopamine transporter (DAT) IC50
[7] = HEK-293 cells with human SERT, 1 nM (3H)citalopram, mean ± S.E.M., read-out: (3H)citalopram binding Ki

**Q.** Which results are given for `C=C(C)c1ccc(C2CC3CCC(O3)C2C(=O)OC)cc1` (single isomer, unassigned) [Compound O-1809, 2β-carbomethoxy-3β-(4-isopropenylphenyl)-8-oxabicyclo(3.2.1)octane]?
**A.** Ki [1, 5]: 16 ± 4 nM; blocked (3H)serotonin transport (in words) [1]: low nanomolar range; Ki [2]: 9.6 ± 1.3 nM; IC50 [3, 6]: 1010 nM; IC50 [4]: 10.2 ± 2.1 nM; SERT/DAT Selectivity ([4]; monkey striatum): 99

**Q.** For `COC(=O)[C@@H]1[C@H]2CC[C@H](C2)C[C@@H]1c1ccc(Cl)c(Cl)c1` (racemic) [Compound O-1391, 2-β-carbomethoxy-3-β-(3,4-dichlorophenyl)bicyclo(3.2.1)octane], which Ki [1, 5] is on record?
**A.** 11.1 ± 7.44 nM

**Q.** And the “blocked (3H)serotonin transport (in words)” value (shortened to “blocked”) [1]?
**A.** low nanomolar range

**Q.** What about the Ki [2] of the same compound?
**A.** 10 ± 4.3 nM

**Q.** What about the IC50 [3, 6] of the same compound?
**A.** 13.5 ± 0.9 nM

**Q.** And the IC50 [4]?
**A.** 33.9 ± 1.85 nM

**Q.** And the “selectivity for the serotonin over the dopamine transporter (in words)” value (shortened to “selectivity for the serotonin”) ([4]; monkey striatum)?
**A.** relatively non-selective

**Q.** What about the “reduction of potency for the SERT on substitution of the 8-oxa with an 8-carba” value ([4]; monkey striatum, O-1391 versus O-1072) of the same compound?
**A.** 7 fold

**Q.** What about the “SERT/DAT Selectivity” value ([4]; monkey striatum) of the same compound?
**A.** 0.4

**Q.** With `COC(=O)[C@@H]1[C@H]2CC[C@H](C2)C[C@@H]1c1ccc2ccccc2c1` (relative stereo) [Compound O-1669, 2β-carbomethoxy-3β-(2-naphthyl)-8-bicyclo(3.2.1)octane] as the compound, how does the Ki [1, 5] read?
**A.** 28 ± 2 nM

**Q.** And the “blocked” value [1]?
**A.** low nanomolar range

**Q.** What about the Ki [2] of the same compound?
**A.** 289 ± 150 nM

**Q.** What about the IC50 [3] of the same compound?
**A.** 27.1 ± 0.1 nM

**Q.** And the IC50 [4]?
**A.** 72.5 ± 12.6 nM

**Q.** What about the “selectivity for the serotonin” value ([4]; monkey striatum) of the same compound?
**A.** relatively non-selective

**Q.** What about the “SERT/DAT Selectivity” value ([4]; monkey striatum) of the same compound?
**A.** 0.4

**Q.** Which Ki [1, 5] does the source give for `CC#Cc1ccc([C@H]2C[C@@H]3CC[C@@H](O3)[C@H]2C(=O)OC)cc1` (relative stereo) [Compound O-1577] here?
**A.** 63 ± 16.8 nM

**Q.** What about the Ki [2] of the same compound?
**A.** 32.6 ± 7.88 nM

**Q.** And the IC50 [3, 6]?
**A.** 545 ± 76 nM

**Q.** And the IC50 [4]?
**A.** 72.4 nM

**Q.** What about the “selectivity for the serotonin” value ([4]; monkey striatum) of the same compound?
**A.** modest

**Q.** And the “SERT/DAT Selectivity” value ([4]; monkey striatum)?
**A.** 8

**Q.** And the melting point?
**A.** 142 to 143 °C

**Q.** For `COC(=O)[C@@H]1[C@H]2CC[C@H](C2)C[C@H]1c1ccc2ccccc2c1` (relative stereo) [Compound O-1670, 2β-carbomethoxy-3α-(2-naphthyl)-8-bicyclo(3.2.1)octane], which Ki [1] is on record?
**A.** 425 ± 332 nM

**Q.** And the Ki [2, 7]?
**A.** 303 ± 8.7 nM

**Q.** And the IC50 [3]?
**A.** 21.2 ± 4.1 nM

**Q.** What about the IC50 [4] of the same compound?
**A.** 77.7 ± 13.5 nM

**Q.** And the “selectivity for the serotonin” value ([4]; monkey striatum)?
**A.** relatively non-selective

**Q.** What about the “SERT/DAT Selectivity” value ([4]; monkey striatum) of the same compound?
**A.** 0.3

**Q.** For `COC(=O)[C@H]1[C@@H](c2ccc(Cl)c(Cl)c2)C[C@@H]2CC[C@H]1O2` (relative stereo) [Compound O-1072, 2-β-carbomethoxy-3-β-(3,4-dichlorophenyl)-8-oxabicyclo(3.2.1)octane], which Ki [1, 5] is on record?
**A.** 10 to 20 nM

**Q.** What about the “blocked” value [1] of the same compound?
**A.** low nanomolar range

**Q.** What about the IC50 [3] of the same compound?
**A.** 3.88 ± 0.93 nM

**Q.** What about the IC50 [4] of the same compound?
**A.** 4.66 ± 1.24 nM

**Q.** What about the “selectivity for the serotonin” value ([4]; monkey striatum) of the same compound?
**A.** relatively non-selective

**Q.** And the “SERT/DAT Selectivity” value ([4]; monkey striatum)?
**A.** 0.8

**Q.** Which Ki [1, 5] does the source give for `CC#Cc1ccc([C@@H]2C[C@@H]3CC[C@@H](O3)[C@H]2C(=O)OC)cc1` (relative stereo) [Compound O-1585, 2β-carbomethoxy-3α-(4′-propynylphenyl)-8-oxabicyclo(3.2.1)octane] here?
**A.** 56.7 ± 10.4 nM

**Q.** What about the Ki [2] of the same compound?
**A.** 76.1 ± 10.5 nM

**Q.** And the IC50 [3, 6]?
**A.** 446 ± 94 nM

**Q.** What about the IC50 [4] of the same compound?
**A.** 152 ± 26.5 nM

**Q.** And the “selectivity for the serotonin” value ([4]; monkey striatum)?
**A.** moderately selective; also recorded: modest

**Q.** And the “SERT/DAT Selectivity” value ([4]; monkey striatum)?
**A.** 3

**Q.** Which Ki [1, 5] does the source give for `C=C(C)c1ccc([C@@H]2C[C@@H]3CC[C@@H](O3)[C@H]2C(=O)OC)cc1` (relative stereo) [Compound O-1738, 2β-carbomethoxy-3α-(4-isopropenylphenyl)-8-oxabicyclo(3.2.1)octane] here?
**A.** 376 ± 74 nM

**Q.** What about the Ki [2] of the same compound?
**A.** 218 ± 45.1 nM

**Q.** What about the IC50 [3, 6] of the same compound?
**A.** 912 ± 100 nM

**Q.** What about the IC50 [4] of the same compound?
**A.** 158 ± 23 nM

**Q.** And the “selectivity for the serotonin” value ([4]; monkey striatum)?
**A.** moderately selective

**Q.** And the “SERT/DAT Selectivity” value ([4]; monkey striatum)?
**A.** 6

**Q.** Which Ki [1, 5] does the source give for `COC(=O)[C@H]1[C@@H](c2ccc3ccccc3c2)C[C@@H]2CC[C@H]1N2C` (relative stereo) [Compound O-1229, N-methyl-2β-carbomethoxy-3β(2′-naphthyl)-8-azabicyclo(3.2.1)octane] here?
**A.** 0.14 ± 0.07 nM

**Q.** And the Ki [2]?
**A.** 1.42 ± 0.78 nM

**Q.** What about the IC50 [3] of the same compound?
**A.** 0.49 ± 0.04 nM

**Q.** What about the IC50 [4] of the same compound?
**A.** 2.19 ± 0.18 nM

**Q.** And the “SERT/DAT Selectivity” value ([4]; monkey striatum)?
**A.** 0.2

**Q.** For `C=C(C)c1ccc(C2CC3CCC(O3)C2C(=O)OC)cc1` (racemic) [Compound O-1739, 2β-carbomethoxy-3β-(4-isopropenylphenyl)-8-oxabicyclo(3.2.1)octane], which Ki [1, 5] is on record?
**A.** 33 ± 2 nM

**Q.** And the “blocked” value [1]?
**A.** low nanomolar range

**Q.** What about the Ki [2] of the same compound?
**A.** 17.7 ± 6.3 nM

**Q.** What about the IC50 [3, 6] of the same compound?
**A.** 1020 nM

**Q.** What about the IC50 [4] of the same compound?
**A.** 19.8 ± 0.75 nM

**Q.** And the “SERT/DAT Selectivity” value ([4]; monkey striatum)?
**A.** 52

**Q.** And the melting point?
**A.** 72.3 to 73.3 °C

**Q.** With `COC(=O)C1C(c2ccc3ccccc3c2)CC2CCC1N2C` (stereo not drawn) [Compound O-1228, N-methyl-2β-carbomethoxy-3-(2′-naphthyl)-8-azabicyclo(3.2.1)octane] as the compound, how does the Ki ([1]; HEK-293 cells with human SERT, 20 nM (3H)serotonin, mean ± S.E.M., read-out: (3H)serotonin transport Ki) read?
**A.** 4.57 ± 0.37 nM

**Q.** And the Ki [2, 7]?
**A.** 3.26 ± 0.26 nM

**Q.** And the IC50 [3, 6]?
**A.** 0.57 ± 0.34 nM

Reference: patent publication US6677338B2, “Serotonin transport inhibitors” (President and Fellows of Harvard College, priority 1997, dated 2004)
